Values after ≈ are worked out from the molar mass of the structure shown. Like-named read-outs stand apart in the source and are kept apart here. Bridge positions count the residues as written; N and C are the ends. Square brackets hold non-standard residues; d marks the D form. Peptide text beside a SMILES is read from it. R5 = C=CCCC[C@@](C)(N)C(=O)O
How the values were obtained:
Salmonella enterica = experiment: microbe, parasite or virus in culture; type: cell-based; conditions: Salmonella enterica; MHB medium
Summary of the method: (§1)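 Broth microdilution per modified NCCLS protocol: 5 × 10^5 CFU/mL bacteria exposed to serial peptide concentrations, 37 ± 2°C for 16 to 20 h. MIC = lowest concentration giving clear wells; clear wells plated on Mueller-Hinton agar overnight at 37 ± 2°C, MBC = lowest concentration with no growth. Serum sensitivity tested in medium with 50% human serum.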

MDR A. baumannii 1607 [1] = experiment: microbe, parasite or virus in culture; type: cell-based, Acinetobacter baumannii; conditions: for MBC: read-out: MBC
Summary of the method: as §1

MDR A. baumannii 2982 [2] = experiment: microbe, parasite or virus in culture; type: cell-based, Acinetobacter baumannii
Summary of the method: as §1

A. baumannii [3] = experiment: Bacterial killing kinetics; type: cell-based, Acinetobacter baumannii; conditions: at respective MBC
Description: Mid-log-phase A. baumannii (5 × 10^5 CFU/mL) bacterial cells were treated with the test candidates at appropriate bactericidal concentrations, followed by incubation at 37°C. The treated bacterial cells were plated in MHA to determine the bacterial killing rate as a function of time ([52]).

MDR A. baumannii 1019 = experiment: microbe, parasite or virus in culture; type: cell-based, Acinetobacter baumannii; conditions: for MIC: read-out: Single drug treatment MIC; for TP4-3 and meropenem combined MIC: MIC of each agent in combination
Description: (§2) The FICI was measured using a standard checkerboard microdilution assay ([57]). Two-fold dilutions of antibiotics were made across the x axis, and two-fold peptide dilutions were made across the y axis. Next, bacteria were added at 5 × 10^5 CFU/well (A. baumannii), followed by incubation at 37 ± 2°C for 16 to 20 h. FIC indices were calculated according to the following equations: FICI = FIC1 + FIC2; FIC1 = (MIC12 combined)/MIC1; FIC2 = (MIC12 combined)/MIC2. The combined efficacy was estimated as follows: FICI ≤ 0.5, synergistic; 0.5 to 1, additive; 1 to 2, indifferent; ≥2, antagonistic.

MDR A. baumannii 14B001 = experiment: microbe, parasite or virus in culture; type: cell-based, Acinetobacter baumannii; conditions: for MIC: read-out: Single drug treatment MIC; for TP4-3 and meropenem combined MIC: MIC of each agent in combination
Description: as §2

MDR A. baumannii 1607 [4] = experiment: microbe, parasite or virus in culture; type: cell-based, Acinetobacter baumannii; conditions: for MIC: read-out: Single drug treatment MIC; for TP4-3 and meropenem combined MIC: MIC of each agent in combination
Description: as §2

MDR A. baumannii 1702 = experiment: microbe, parasite or virus in culture; type: cell-based, Acinetobacter baumannii; conditions: for MIC: read-out: Single drug treatment MIC; for TP4-3 and meropenem combined MIC: MIC of each agent in combination
Description: as §2

MDR A. baumannii 2962 = experiment: microbe, parasite or virus in culture; type: cell-based, Acinetobacter baumannii; conditions: for MIC: read-out: Single drug treatment MIC; for TP4-3 and meropenem combined MIC: MIC of each agent in combination
Description: as §2

MDR A. baumannii 2982 [5] = experiment: microbe, parasite or virus in culture; type: cell-based, Acinetobacter baumannii; conditions: for MIC: read-out: Single drug treatment MIC; for TP4-3 and meropenem combined MIC: MIC of each agent in combination
Description: as §2

MDR A. baumannii 921 = experiment: microbe, parasite or virus in culture; type: cell-based, Acinetobacter baumannii; conditions: for MIC: read-out: Single drug treatment MIC; for TP4-3 and meropenem combined MIC: MIC of each agent in combination
Description: as §2

Staphylococcus aureus = type: cell-based
Description: The antimicrobial assay was performed according to a modified National Committee for Clinical Laboratory Standards (NCCLS) protocol ([41], [42]). Briefly, 5 × 10^5 CFU/mL bacterial cells were treated with various peptide concentrations and incubated at 37 ± 2°C for 16 to 20 h. The lowest concentration with clear wells was recorded as the MIC for each test molecule. The clear wells were further plated in Mueller-Hinton agar (MHA) plates, followed by incubation overnight at 37 ± 2°C. After plating, the lowest concentration at which no growth was observed was recorded as the MBC. For the serum sensitivity assay, the antimicrobial activity of the peptides was tested in medium containing 50% human serum ([43], [44]).

human red blood cells = type: cell-based
Summary of the method: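 Healthy human blood as a 2% cell suspension in normal saline was mixed 1:1 with peptide at graded concentrations and held at 37 ± 2°C for 1 h. After centrifugation, supernatant absorbance at 540 nm gave percent hemolysis relative to controls.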

A. baumannii [6] = experiment: PI membrane permeabilization assay; type: cell-based, Acinetobacter baumannii; conditions: 25 μM, 10^8 CFU/mL
Description: (§3) Mid-log-phase bacterial cells (A. baumannii) were resuspended in 10 mM PBS (pH 7.4) to a density of 10^8 CFU/mL. The cell suspension was supplemented with 25 mM glucose followed by 15 min incubation at 37°C. After the incubation, N-phenyl-1-naphthylamine dye was added to a final concentration of 10 μM. Next, 90 μL of bacterial cells was transferred to a 96-well black plate, and fluorescence was recorded for 40 min (excitation/emission: 350/420 nm). […] After this treatment, fluorescence was recorded for an additional 20 min ([53]). Data are presented as fluorescence values as a function of time. Permeabilization of blank- and test compound-treated cells was compared. For the PI membrane permeabilization assay, 10^8 bacterial cells (A. baumannii) were resuspended in MHB containing 20 μg/mL PI. […] Fluorescence was read (excitation/emission: 584/620 nm). Fluorescence values of blank- and compound-treated cells were graphed as a function of time ([54], [55]).

A. baumannii [7] = experiment: NPN membrane permeabilization assay; type: cell-based, Acinetobacter baumannii; conditions: 25 μM, 10^8 CFU/mL
Description: as §3

A. baumannii [8] = experiment: SEM and TEM analysis; type: cell-based, Acinetobacter baumannii; conditions: 1× MIC
Description: The treated suspension was washed twice with 10 mM PBS (pH 7.4) followed by treatment with 4% glutaraldehyde. Next, the suspension was incubated for 30 min at 4°C. Following the incubation, the treated suspension was centrifuged (5,000 × g, 10 min), and the pellet was placed on a glass slide and allowed to attach for 30 min. The glass slide was then subjected to gradient ethanol washing from 0% to 100% ethanol. Finally, the glass slides were dried and coated with gold for imaging ([55]). For TEM, glutaraldehyde samples were cryoimmobilized and subjected to TEM imaging ([58], [59]).

[9] = Acinetobacter baumannii, MHB medium
[10] = HS, MH medium containing 50% human serum

## C[C@@H](O)[C@H]1C(=O)N2C(C(=O)O)=C(S[C@@H]3CN[C@H](C(=O)N(C)C)C3)[C@H](C)[C@H]12 [Meropenem]
Salmonella enterica
  MBC: 6.25 µM (≈ 2.4 µg/mL)
  MIC: 3.13 to 6.25 µM (≈ 1.2 to 2.4 µg/mL)
MDR A. baumannii 1607 [1]; [9]
  MIC: > 25 µM
  MBC: > 25 µM
MDR A. baumannii 1607 [1]; [10]
  MIC: >25 µM
  MBC: >25 µM
MDR A. baumannii 2982 [2]; [9]
  MBC: > 25 µM
  MIC: > 25 µM
MDR A. baumannii 2982 [2]; [10]
  MBC: >25 µM
  MIC: >25 µM
A. baumannii [3]; within 8 h
  reduction of the bacterial population: approximately half
MDR A. baumannii 1019; Acinetobacter baumannii
  MIC: 50 µM
MDR A. baumannii 1019; TP4-3 and M
  TP4-3 and meropenem combined MIC: 6.25 µM
MDR A. baumannii 14B001; Acinetobacter baumannii
  MIC: 800 µM
MDR A. baumannii 14B001; TP4-3 and M
  TP4-3 and meropenem combined MIC: 400 µM
MDR A. baumannii 1607 [4]; Acinetobacter baumannii
  MIC: 100 µM
MDR A. baumannii 1607 [4]; TP4-3 and M
  TP4-3 and meropenem combined MIC: 12.5 µM
MDR A. baumannii 1702; Acinetobacter baumannii
  MIC: 25 to 50 µM
MDR A. baumannii 1702; TP4-3 and M
  TP4-3 and meropenem combined MIC: 12.5 µM
MDR A. baumannii 2962; Acinetobacter baumannii
  MIC: 100 µM
MDR A. baumannii 2962; TP4-3 and M
  TP4-3 and meropenem combined MIC: 25 µM
MDR A. baumannii 2982 [5]; Acinetobacter baumannii
  MIC: 400 µM
MDR A. baumannii 2982 [5]; TP4-3 and M
  TP4-3 and meropenem combined MIC: 200 µM
MDR A. baumannii 921; Acinetobacter baumannii
  MIC: 400 µM
MDR A. baumannii 921; TP4-3 and M
  TP4-3 and meropenem combined MIC: 100 µM

## CC[C@H](C)[C@H](NC(=O)[C@@H](NC(=O)[C@@H](N)Cc1ccccc1)[C@@H](C)CC)C(=O)N[C@]1(C)CCCC=CCCC[C@](C)(C(=O)NCC(=O)N[C@@H](CC(C)C)C(=O)N[C@@H](Cc2ccccc2)C(=O)N[C@@H](CCCCN)C(=O)N[C@@H](CCCCN)C(=O)N[C@@H](CCCCN)C(=O)N[C@@H](C)C(=O)NCC(=O)N[C@@H](C)C(=O)N[C@]2(C)CCCC=CCCC[C@](C)(C(=O)N[C@H](C(=O)N[C@@H](CCCCN)C(=O)N[C@@H](CCCCN)C(=O)O)[C@@H](C)CC)NC(=O)[C@H](CCCCN)NC(=O)[C@H](CCCCN)NC(=O)[C@H](CCCCN)NC2=O)NC(=O)[C@H](CO)NC(=O)[C@H](CCCCN)NC(=O)[C@H](CCCCN)NC1=O [TP4-3] (H-FII[R5]KKS[R5]GLFKKKAGA[R5]KKK[R5]IKK-OH; staple 4-8, 18-22; N-terminus and C-terminus assumed)
Staphylococcus aureus
  MBC: >25 µM
  MIC: >25 µM
MDR A. baumannii 1607 [1]; MDR 1607
  MIC: 6.25 µM (≈ 18.1 µg/mL)
  MBC: 12.5 µM (≈ 36.1 µg/mL)
MDR A. baumannii 2982 [2]; MDR 2982
  MBC: 6.25 µM (≈ 18.1 µg/mL)
  MIC: 6.25 µM (≈ 18.1 µg/mL)
Human red blood cells
  15% hemolysis concn: >100 µM
A. baumannii [3]
  time to clear the entire bacterial load: ≤ 8 h
A. baumannii [6]
  PI fluorescence signal vs controls: approximately 3 fold
A. baumannii [7]
  NPN fluorescence signal vs controls: ~4 fold
A. baumannii [8]
  bacterial membrane architecture (SEM, TEM): significant membrane deformation
MDR A. baumannii 1019; MDR 1019
  MIC: 12.5 µM
MDR A. baumannii 1019; TP4-3 and D
  TP4-3 and meropenem combined MIC: 3.13 µM
MDR A. baumannii 1019; TP4-3 and M
  TP4-3 and meropenem combined MIC: 3.13 µM
MDR A. baumannii 14B001; MDR 14B001
  MIC: 3.13 µM
MDR A. baumannii 14B001; TP4-3 and D
  TP4-3 and meropenem combined MIC: 3.13 µM
MDR A. baumannii 14B001; TP4-3 and M
  TP4-3 and meropenem combined MIC: 0.09 µM
MDR A. baumannii 1607 [4]; MDR 1607
  MIC: 6.25 µM
MDR A. baumannii 1607 [4]; TP4-3 and D
  TP4-3 and meropenem combined MIC: 3.13 µM
MDR A. baumannii 1607 [4]; TP4-3 and M
  TP4-3 and meropenem combined MIC: 3.13 µM
MDR A. baumannii 1702; MDR 1702
  MIC: 6.25 µM
MDR A. baumannii 1702; TP4-3 and D
  TP4-3 and meropenem combined MIC: 3.13 µM
MDR A. baumannii 1702; TP4-3 and M
  TP4-3 and meropenem combined MIC: 3.13 µM
MDR A. baumannii 2962; MDR 2962
  MIC: 6.25 µM
MDR A. baumannii 2962; TP4-3 and D
  TP4-3 and meropenem combined MIC: 3.13 µM
MDR A. baumannii 2962; TP4-3 and M
  TP4-3 and meropenem combined MIC: 3.13 µM
MDR A. baumannii 2982 [5]; MDR 2982
  MIC: 6.25 µM
MDR A. baumannii 2982 [5]; TP4-3 and D
  TP4-3 and meropenem combined MIC: 3.13 µM
MDR A. baumannii 2982 [5]; TP4-3 and M
  TP4-3 and meropenem combined MIC: 3.13 µM
MDR A. baumannii 921; MDR 921
  MIC: 6.25 µM
MDR A. baumannii 921; TP4-3 and D
  TP4-3 and meropenem combined MIC: 3.13 µM
MDR A. baumannii 921; TP4-3 and M
  TP4-3 and meropenem combined MIC: 0.78 µM
